# From ChEMBL document CHEMBL1154519, “Synthesis of novel di- and tricationic carbapenems with potent anti-MRSA activity” (Bioorg Med Chem Lett, 2009)
# Columns and labels:
# Staphylococcus aureus [1] = experiment: Antibacterial activity against methicillin-resistant Staphylococcus aureus 209P JC1; assay type: functional
# Staphylococcus aureus [2] = experiment: Antibacterial activity against methicillin-resistant Staphylococcus aureus M-126; assay type: functional
# Staphylococcus aureus [3] = experiment: Antibacterial activity against carbapenem-resistant Staphylococcus aureus M-126HR; assay type: functional
# Staphylococcus aureus [4] = experiment: Antibacterial activity against methicillin-resistant Staphylococcus aureus; assay type: functional
# [5] = Solubility in water at 5 mg/mL; assay type: physicochemical
structure (smiles),measurement,setting,value
CSc1c2sc(C3=C(C(=O)O)N4C(=O)[C@H]([C@@H](C)O)[C@H]4[C@H]3C)cn2c[n+]1Cc1cccc(C[n+]2cccc(C(N)=O)c2)c1.[Br-].[Br-],MIC,Staphylococcus aureus [1],< 0.006 µg/mL
same,MIC,Staphylococcus aureus [2],0.39 µg/mL
same,MIC,Staphylococcus aureus [3],1.56 µg/mL
CSc1c2sc(C3=C(C(=O)O)N4C(=O)[C@H]([C@@H](C)O)[C@H]4[C@H]3C)cn2c[n+]1Cc1cccc(C[N+]2(C)CCOCC2)c1.[Br-].[Br-],MIC,Staphylococcus aureus [1],< 0.006 µg/mL
same,MIC,Staphylococcus aureus [2],0.78 µg/mL
same,MIC,Staphylococcus aureus [3],3.13 µg/mL
CSc1c2sc(C3=C(C(=O)O)N4C(=O)[C@H]([C@@H](C)O)[C@H]4[C@H]3C)cn2c[n+]1Cc1cccc(C[N+]23CC[N+](C)(CC2)CC3)c1.[I-].[I-].[I-],MIC,Staphylococcus aureus [1],< 0.006 µg/mL
same,MIC,Staphylococcus aureus [2],0.78 µg/mL
same,MIC,Staphylococcus aureus [3],1.56 µg/mL
CSc1c2sc(C3=C(C(=O)[O-])N4C(=O)[C@H]([C@@H](C)O)[C@H]4[C@H]3C)cn2c[n+]1Cc1ccccc1,MIC,Staphylococcus aureus [1],< 0.006 µg/mL
same,MIC,Staphylococcus aureus [2],0.39 µg/mL
same,MIC,Staphylococcus aureus [3],1.56 µg/mL
CN[C@H](CC(C)C)C(=O)N[C@H]1C(=O)N[C@@H](CC(N)=O)C(=O)N[C@H]2C(=O)N[C@H]3C(=O)N[C@H](C(=O)N[C@H](C(=O)O)c4cc(O)cc(O)c4-c4cc3ccc4O)[C@H](O)c3ccc(c(Cl)c3)Oc3cc2cc(c3O[C@@H]2O[C@H](CO)[C@@H](O)[C@H](O)[C@H]2O[C@H]2C[C@](C)(N)[C@H](O)[C@H](C)O2)Oc2ccc(cc2Cl)[C@H]1O [VANCOMYCIN],MIC,Staphylococcus aureus [1],0.78 µg/mL
same,MIC,Staphylococcus aureus [2],1.56 µg/mL
same,MIC,Staphylococcus aureus [3],1.56 µg/mL
same,MIC50,Staphylococcus aureus [4],1.56 µg/mL
same,MIC90,Staphylococcus aureus [4],1.56 µg/mL
CSc1c2sc(C3=C(C(=O)O)N4C(=O)[C@H]([C@@H](C)O)[C@H]4[C@H]3C)cn2c[n+]1Cc1cccc(C[N+]23CC[N+](CCO)(CC2)CC3)c1.[Br-].[I-].[I-],MIC,Staphylococcus aureus [1],< 0.006 µg/mL
same,MIC,Staphylococcus aureus [2],0.78 µg/mL
same,MIC,Staphylococcus aureus [3],1.56 µg/mL
CSc1c2sc(C3=C(C(=O)O)N4C(=O)[C@H]([C@@H](C)O)[C@H]4[C@H]3C)cn2c[n+]1Cc1cccc(C[n+]2ccsc2)c1.[Br-].[Br-],MIC,Staphylococcus aureus [1],< 0.006 µg/mL
same,MIC,Staphylococcus aureus [2],0.78 µg/mL
same,MIC,Staphylococcus aureus [3],3.13 µg/mL
CCN(CC)C(=O)c1ccc(C[n+]2cn3cc(C4=C(C(=O)[O-])N5C(=O)[C@H]([C@@H](C)O)[C@H]5[C@H]4C)sc3c2SC)cc1,MIC,Staphylococcus aureus [1],0.013 µg/mL
same,MIC,Staphylococcus aureus [2],1.56 µg/mL
same,MIC,Staphylococcus aureus [3],6.25 µg/mL
CSc1c2sc(C3=C(C(=O)O)N4C(=O)[C@H]([C@@H](C)O)[C@H]4[C@H]3C)cn2c[n+]1Cc1ccc(C[N+]2(C)CCOCC2)cc1.[Br-].[Br-],MIC,Staphylococcus aureus [1],< 0.006 µg/mL
same,MIC,Staphylococcus aureus [2],1.56 µg/mL
same,MIC,Staphylococcus aureus [3],3.13 µg/mL
CSc1c2sc(C3=C(C(=O)O)N4C(=O)[C@H]([C@@H](C)O)[C@H]4[C@H]3C)cn2c[n+]1Cc1cccc(C[N+]23CC[N+](CCCN)(CC2)CC3)c1.[I-].[I-].[I-],MIC,Staphylococcus aureus [1],< 0.006 µg/mL
same,MIC,Staphylococcus aureus [2],0.39 µg/mL
same,MIC,Staphylococcus aureus [3],0.78 µg/mL
same,MIC50,Staphylococcus aureus [4],0.39 µg/mL
same,MIC90,Staphylococcus aureus [4],0.78 µg/mL
same,solubility,[5],20 mg/mL
CSc1c2sc(C3=C(C(=O)O)N4C(=O)[C@H]([C@@H](C)O)[C@H]4[C@H]3C)cn2c[n+]1Cc1ccccc1C[N+]1(C)CCOCC1.[Br-].[Br-],MIC,Staphylococcus aureus [1],< 0.006 µg/mL
same,MIC,Staphylococcus aureus [2],1.56 µg/mL
same,MIC,Staphylococcus aureus [3],3.13 µg/mL
CSc1c2sc(C3=C(C(=O)O)N4C(=O)[C@H]([C@@H](C)O)[C@H]4[C@H]3C)cn2c[n+]1Cc1cccc(C[N+]2(C)CCCC2)c1.[Br-].[Br-],MIC,Staphylococcus aureus [1],< 0.006 µg/mL
same,MIC,Staphylococcus aureus [2],0.78 µg/mL
same,MIC,Staphylococcus aureus [3],3.13 µg/mL
CSc1c2sc(C3=C(C(=O)O)N4C(=O)[C@H]([C@@H](C)O)[C@H]4[C@H]3C)cn2c[n+]1Cc1cccc(C[N+]23CC[N+](CC(N)=O)(CC2)CC3)c1.[Br-].[I-].[I-],MIC,Staphylococcus aureus [1],< 0.006 µg/mL
same,MIC,Staphylococcus aureus [2],0.78 µg/mL
same,MIC,Staphylococcus aureus [3],1.56 µg/mL
CSc1c2sc(C3=C(C(=O)O)N4C(=O)[C@H]([C@@H](C)O)[C@H]4[C@H]3C)cn2c[n+]1Cc1ccccc1C[n+]1ccccc1.[Br-].[Br-],MIC,Staphylococcus aureus [1],< 0.006 µg/mL
same,MIC,Staphylococcus aureus [2],1.56 µg/mL
same,MIC,Staphylococcus aureus [3],3.13 µg/mL
CSc1c2sc(C3=C(C(=O)[O-])N4C(=O)[C@H]([C@@H](C)O)[C@H]4[C@H]3C)cn2c[n+]1Cc1ccc(C(=O)O)cc1,MIC,Staphylococcus aureus [1],0.025 µg/mL
same,MIC,Staphylococcus aureus [2],3.13 µg/mL
same,MIC,Staphylococcus aureus [3],12.5 µg/mL
COc1cccc(C[n+]2cn3cc(C4=C(C(=O)[O-])N5C(=O)[C@H]([C@@H](C)O)[C@H]5[C@H]4C)sc3c2SC)c1,MIC,Staphylococcus aureus [1],< 0.006 µg/mL
same,MIC,Staphylococcus aureus [2],0.78 µg/mL
same,MIC,Staphylococcus aureus [3],1.56 µg/mL
CSc1c2sc(C3=C(C(=O)O)N4C(=O)[C@H]([C@@H](C)O)[C@H]4[C@H]3C)cn2c[n+]1Cc1cccc(C[n+]2cc3sccn3c2)c1.[Br-].[Br-],MIC,Staphylococcus aureus [1],< 0.006 µg/mL
same,MIC,Staphylococcus aureus [2],0.78 µg/mL
same,MIC,Staphylococcus aureus [3],1.56 µg/mL
CSc1c2sc(C3=C(C(=O)O)N4C(=O)[C@H]([C@@H](C)O)[C@H]4[C@H]3C)cn2c[n+]1Cc1cccc(C[n+]2ccccc2)c1.[Br-].[Br-],MIC,Staphylococcus aureus [1],< 0.006 µg/mL
same,MIC,Staphylococcus aureus [2],0.78 µg/mL
same,MIC,Staphylococcus aureus [3],1.56 µg/mL
CSc1c2sc(C3=C(C(=O)[O-])N4C(=O)[C@H]([C@@H](C)O)[C@H]4[C@H]3C)cn2c[n+]1Cc1ccc(C#N)cc1,MIC,Staphylococcus aureus [1],< 0.006 µg/mL
same,MIC,Staphylococcus aureus [2],0.78 µg/mL
same,MIC,Staphylococcus aureus [3],3.13 µg/mL
CSc1c2sc(C3=C(C(=O)[O-])N4C(=O)[C@H]([C@@H](C)O)[C@H]4[C@H]3C)cn2c[n+]1CC(N)=O,MIC,Staphylococcus aureus [1],< 0.006 µg/mL
same,MIC,Staphylococcus aureus [2],1.56 µg/mL
same,MIC,Staphylococcus aureus [3],3.13 µg/mL
CSc1c2sc(C3=C(C(=O)[O-])N4C(=O)[C@H]([C@@H](C)O)[C@H]4[C@H]3C)cn2c[n+]1Cc1cccc(N)c1,MIC,Staphylococcus aureus [1],< 0.006 µg/mL
same,MIC,Staphylococcus aureus [2],0.78 µg/mL
same,MIC,Staphylococcus aureus [3],3.13 µg/mL
CSc1c2sc(C3=C(C(=O)[O-])N4C(=O)[C@H]([C@@H](C)O)[C@H]4[C@H]3C)cn2c[n+]1Cc1ccc(Cl)cc1,MIC,Staphylococcus aureus [1],< 0.006 µg/mL
same,MIC,Staphylococcus aureus [2],0.78 µg/mL
same,MIC,Staphylococcus aureus [3],1.56 µg/mL
CSc1c2sc(C3=C(C(=O)O)N4C(=O)[C@H]([C@@H](C)O)[C@H]4[C@H]3C)cn2c[n+]1Cc1cccc(C[n+]2ccc3ccccc3c2)c1.[Br-].[Br-],MIC,Staphylococcus aureus [1],< 0.006 µg/mL
same,MIC,Staphylococcus aureus [2],0.78 µg/mL
same,MIC,Staphylococcus aureus [3],1.56 µg/mL
CSc1c2sc(C3=C(C(=O)O)N4C(=O)[C@H]([C@@H](C)O)[C@H]4[C@H]3C)cn2c[n+]1Cc1ccc(C[n+]2ccccc2)cc1.[Br-].[Br-],MIC,Staphylococcus aureus [1],< 0.006 µg/mL
same,MIC,Staphylococcus aureus [2],0.78 µg/mL
same,MIC,Staphylococcus aureus [3],1.56 µg/mL
C[C@@H](O)[C@H]1C(=O)N2C(C(=O)O)=C(SCCNC=N)C[C@H]12 [IMIPENEM ANHYDROUS],MIC,Staphylococcus aureus [1],0.013 µg/mL
same,MIC,Staphylococcus aureus [2],25 µg/mL
same,MIC,Staphylococcus aureus [3],100 µg/mL
CSc1c2sc(C3=C(C(=O)[O-])N4C(=O)[C@H]([C@@H](C)O)[C@H]4[C@H]3C)cn2c[n+]1Cc1cccc(O)c1,MIC,Staphylococcus aureus [1],< 0.006 µg/mL
same,MIC,Staphylococcus aureus [2],0.39 µg/mL
same,MIC,Staphylococcus aureus [3],1.56 µg/mL
